Measured values published in PubChem BioAssay AID256 (DTP/NCI, 2004).
Values joined by “and” are separate entries in the source; they are usually repeats but may differ in a detail not shown here. Equal entries are not always repeated. Toxic doses and inconclusive results are not listed. How the source made its calls: active means survival T/C of 150% or more; inactive means T/C below 125% in these data.

Tested on: CD2F1 mice, L1210 leukemia ip, survival T/C
Experiment: NCI In Vivo Anticancer Drug Screen. Data for tumor model L1210 Leukemia (intraperitoneal) in CD2F1 (CDF1) mice
Details: higher = longer survival
Procedure, shortened: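 Activity against a transplanted murine tumor was judged by comparing the compound group with a vehicle group. The outcome in the treated animals was divided by that in the controls.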

[1] = endpoint: mean survival time, dose: 100.0 mg/kg/injection, schedule: Q01DX009 (ip), vehicle: saline with Tween-80
[2] = endpoint: mean survival time, dose: 200.0 mg/kg/injection, schedule: Q01DX009 (ip), vehicle: saline with Tween-80
[3] = endpoint: mean survival time, dose: 400.0 mg/kg/injection, schedule: Q01DX009 (ip), vehicle: saline with Tween-80
[4] = endpoint: mean survival time, dose: 25.0 mg/kg/injection, schedule: Q01DX009 (ip), vehicle: water
[5] = endpoint: mean survival time, dose: 100.0 mg/kg/injection, schedule: Q04DX002 (ip), vehicle: saline with Tween-80
[6] = endpoint: mean survival time, dose: 200.0 mg/kg/injection, schedule: Q04DX002 (ip), vehicle: saline with Tween-80
[7] = endpoint: mean survival time, dose: 400.0 mg/kg/injection, schedule: Q04DX002 (ip), vehicle: saline with Tween-80
[8] = endpoint: mean survival time, dose: 100.0 mg/kg/injection, schedule: Q04DX003 (ip), vehicle: saline with Tween-80
[9] = endpoint: mean survival time, dose: 200.0 mg/kg/injection, schedule: Q04DX003 (ip), vehicle: saline with Tween-80
[10] = endpoint: mean survival time, dose: 400.0 mg/kg/injection, schedule: Q04DX003 (ip), vehicle: saline with Tween-80
[11] = endpoint: mean survival time, dose: 50.0 mg/kg/injection, schedule: Q01DX009 (ip), vehicle: saline with Tween-80
[12] = endpoint: mean survival time, dose: 50.0 mg/kg/injection, schedule: Q04DX002 (ip), vehicle: saline with Tween-80

Measured: T/C

O=C1N(C2CCCCC2)CC2C(c3ccccc3)N(c3ccccc3)NC12O (configuration not stated)
inactive: endpoint: mean survival time, dose: 100.0 mg/kg/injection, schedule: Q01DX001 (ip), vehicle: saline with Tween-80 92 % of control | [1] 97 % of control | endpoint: mean survival time, dose: 200.0 mg/kg/injection, schedule: Q01DX001 (ip), vehicle: saline with Tween-80 91 % of control | [2] 98 % of control | endpoint: mean survival time, dose: 400.0 mg/kg/injection, schedule: Q01DX001 (ip), vehicle: saline with Tween-80 88 % of control | [3] 108 % of control

CC1CCc2ccccc2N1CCN (configuration not stated)
inactive: endpoint: mean survival time, dose: 100.0 mg/kg/injection, schedule: Q04DX003 (ip), vehicle: Klucel (hydroxypropylcellulose) (HPC) 95 % of control

CCCCC#CCOCC(O)CCl (configuration not stated)
inactive: [4] 95 % of control | endpoint: mean survival time, dose: 50.0 mg/kg/injection, schedule: Q01DX009 (ip), vehicle: water 107 % of control | endpoint: mean survival time, dose: 100.0 mg/kg/injection, schedule: Q01DX009 (ip), vehicle: water 103 % of control | endpoint: mean survival time, dose: 200.0 mg/kg/injection, schedule: Q01DX009 (ip), vehicle: water 100 % of control

COC1CCC(/C(C#N)=C/C2CCC(OC)C(OC)C2)CC1 (configuration not stated)
inactive: [5] 94 % of control | [6] 94 % of control | [7] 94 % of control

Cc1ccc2cccc(CC(=O)O)c2c1
inactive: [5] 102 % of control | [6] 98 % of control | [7] 91 % of control

C=CC1CC=CCC1 (configuration not stated)
inactive: [1] 103 % of control | [2] 106 % of control

Oc1ccc(Nc2c3ccccc3nc3c2ccc2ccccc23)cc1CN(CCCl)CCCl
inactive: endpoint: mean survival time, dose: 6.25 mg/kg/injection, schedule: Q01DX009 (ip), vehicle: saline 91 % of control

Nc1nc(SSc2nc(N)nc3c2ncn3C2OC(CO)CC2O)c2ncn(C3OC(CO)CC3O)c2n1 (configuration not stated)
inactive: endpoint: mean survival time, dose: 300.0 mg/kg/injection, schedule: Q01DX001 (ip), vehicle: saline 118 % of control

CCCCCCCCCCCCCCCCCCCC
inactive: endpoint: mean survival time, dose: 25.0 mg/kg/injection, schedule: Q04DX003 (ip), vehicle: other 90 % of control | endpoint: mean survival time, dose: 50.0 mg/kg/injection, schedule: Q04DX003 (ip), vehicle: other 91 % of control | endpoint: mean survival time, dose: 100.0 mg/kg/injection, schedule: Q04DX003 (ip), vehicle: other 88 % of control

CCCN(CCC)CC(=O)Nc1c(Cl)cccc1Cl
inactive: endpoint: mean survival time, dose: 50.0 mg/kg/injection, schedule: Q01DX009 (ip), vehicle: saline sonified 101 % of control | endpoint: mean survival time, dose: 100.0 mg/kg/injection, schedule: Q01DX009 (ip), vehicle: saline sonified 96 % of control | [8] 105 % of control | [9] 105 % of control

COc1cc(/C=C/c2ccccn2)cc(OC)c1OC
inactive: [8] 101 % of control | [9] 91 % of control

O=C1NC(=O)C([P+](c2ccccc2)(c2ccccc2)c2ccccc2)C1=O (configuration not stated)
inactive: [8] 102 % of control | [9] 102 % of control | [10] 98 % of control

CN1C(=O)C2C3CCC(C)(O3)C2C1=O (configuration not stated)
inactive: [8] 98 % of control | [9] 96 % of control | [10] 98 % of control

COC(=O)[C@]1(C)CCC[C@]2(C)[C@H]3CC4OO[C@@]3(CC[C@H]21)[C@H]1O[C@@]41C(C)C
inactive: [1] 97 % of control | endpoint: mean survival time, dose: 125.0 mg/kg/injection, schedule: Q01DX009 (ip), vehicle: Klucel (hydroxypropylcellulose) (HPC) 96 % of control | [2] 101 % of control | endpoint: mean survival time, dose: 250.0 mg/kg/injection, schedule: Q01DX009 (ip), vehicle: Klucel (hydroxypropylcellulose) (HPC) 96 % of control | [3] 98 % of control | endpoint: mean survival time, dose: 500.0 mg/kg/injection, schedule: Q01DX009 (ip), vehicle: Klucel (hydroxypropylcellulose) (HPC) 97 % of control

O=C(O)CCC(=O)c1cccc(O)c1
inactive: endpoint: mean survival time, dose: 100.0 mg/kg/injection, schedule: Q01DX001 (ip), vehicle: saline 103 % of control | endpoint: mean survival time, dose: 200.0 mg/kg/injection, schedule: Q01DX001 (ip), vehicle: saline 104 % of control | endpoint: mean survival time, dose: 400.0 mg/kg/injection, schedule: Q01DX001 (ip), vehicle: saline 103 % of control

CC(Cl)CN(CC(C)Cl)c1ccc2c(c1)Cc1cc([N+](=O)[O-])ccc1-2 (configuration not stated)
inactive: [8] 93 % of control | [9] 96 % of control | [10] 96 % of control

CC([NH-])CC[NH-].[I][Pt+2][I] (configuration not stated)
inactive: endpoint: mean survival time, dose: 12.5 mg/kg/injection, schedule: Q04DX003 (ip), vehicle: saline with Tween-80 118 % of control | endpoint: mean survival time, dose: 25.0 mg/kg/injection, schedule: Q04DX003 (ip), vehicle: saline with Tween-80 124 % of control | endpoint: mean survival time, dose: 50.0 mg/kg/injection, schedule: Q04DX003 (ip), vehicle: saline with Tween-80 109 % of control

COS(=O)C(c1ccccc1)C(c1ccccc1)C(O)c1ccccc1 (configuration not stated)
inactive: [1] 90 % of control | [2] 90 % of control | [3] 95 % of control

CC1(C)CC(Cc2ccccc2)C(=O)c2ccccc21 (configuration not stated)
inactive: [8] 94 % of control | [9] 92 % of control | [10] 94 % of control

CCN(CC)CCN1CC2CCCCC2C1 (configuration not stated)
inactive: endpoint: mean survival time, dose: 25.0 mg/kg/injection, schedule: Q01DX009 (ip), vehicle: saline with Tween-80 100 % of control | [11] 100 % of control | [1] 98 % of control and 102 % of control

Cc1ccc(NC(=O)NO)cc1
inactive: endpoint: mean survival time, dose: 4.0 mg/kg/injection, schedule: Q03HX024 (ip), vehicle: saline 95 % of control | endpoint: mean survival time, dose: 8.0 mg/kg/injection, schedule: Q03HX024 (ip), vehicle: saline 93 % of control | endpoint: mean survival time, dose: 16.0 mg/kg/injection, schedule: Q03HX024 (ip), vehicle: saline 101 % of control | endpoint: mean survival time, dose: 32.0 mg/kg/injection, schedule: Q03HX024 (ip), vehicle: saline 87 % of control | endpoint: mean survival time, dose: 62.0 mg/kg/injection, schedule: Q03HX024 (ip), vehicle: saline with Tween-80 97 % of control | endpoint: mean survival time, dose: 64.0 mg/kg/injection, schedule: Q03HX024 (ip), vehicle: saline 93 % of control | endpoint: mean survival time, dose: 93.0 mg/kg/injection, schedule: Q03HX024 (ip), vehicle: saline with Tween-80 99 % of control

C[n+]1c(-c2cc(Cl)cc(Cl)c2)c2cc(N)ccc2c2ccccc21
inactive: endpoint: mean survival time, dose: 6.25 mg/kg/injection, schedule: Q01DX009 (ip), vehicle: water 108 % of control | endpoint: mean survival time, dose: 12.5 mg/kg/injection, schedule: Q01DX009 (ip), vehicle: water 108 % of control | [4] 104 % of control

NC1CCCCC1N.NC1CCCCC1N.[Cl-].[Ni] (configuration not stated)
inactive: [12] 110 % of control

CC(/C=N\N=C(N)N)=N/N=C(N)N
inactive: endpoint: median survival time, dose: 5.0 mg/kg/injection, schedule: Q01DX009 (ip), vehicle: saline 94 % of control

O=C1C=CC(=O)N1c1ccc(F)cc1 (tested in a mixture with another compound)
inactive: [11] 96 % of control | [1] 91 % of control | [2] 86 % of control

Cc1cccc(C)c1NC(=O)c1ccccc1C(=O)O
inactive: [1] 92 % of control | [8] 98 % of control | [2] 92 % of control | [9] 98 % of control | [3] 97 % of control | [10] 96 % of control

O=P1(N(CCCl)CCCl)OC(c2ccccc2)=CCN1c1ccccc1 (configuration not stated)
inactive: endpoint: mean survival time, dose: 31.25 mg/kg/injection, schedule: Q01DX001 (ip), vehicle: saline 103 % of control | endpoint: mean survival time, dose: 62.5 mg/kg/injection, schedule: Q01DX001 (ip), vehicle: saline 97 % of control | endpoint: mean survival time, dose: 125.0 mg/kg/injection, schedule: Q01DX001 (ip), vehicle: saline 100 % of control | endpoint: mean survival time, dose: 250.0 mg/kg/injection, schedule: Q01DX001 (ip), vehicle: saline 100 % of control | endpoint: mean survival time, dose: 500.0 mg/kg/injection, schedule: Q01DX001 (ip), vehicle: saline 103 % of control

C=CC(=O)N1CCN(C(=O)C=C)c2cc(C)c(C)cc21
inactive: endpoint: mean survival time, dose: 25.0 mg/kg/injection, schedule: Q01DX009 (ip), vehicle: saline 101 % of control | endpoint: mean survival time, dose: 50.0 mg/kg/injection, schedule: Q01DX009 (ip), vehicle: saline 101 % of control | endpoint: mean survival time, dose: 100.0 mg/kg/injection, schedule: Q01DX009 (ip), vehicle: saline 100 % of control

CC1=CC(=O)C(c2ccc(O)cc2O)=CC1=O
inactive: endpoint: mean survival time, dose: 2.5 mg/kg/injection, schedule: Q01DX009 (ip), vehicle: saline with Tween-80 96 % of control | endpoint: mean survival time, dose: 2.5 mg/kg/injection, schedule: Q04DX003 (ip), vehicle: saline with Tween-80 102 % of control | endpoint: mean survival time, dose: 5.0 mg/kg/injection, schedule: Q01DX009 (ip), vehicle: saline with Tween-80 91 % of control | endpoint: mean survival time, dose: 5.0 mg/kg/injection, schedule: Q04DX003 (ip), vehicle: saline with Tween-80 104 % of control | endpoint: mean survival time, dose: 10.0 mg/kg/injection, schedule: Q01DX009 (ip), vehicle: saline with Tween-80 95 % of control | endpoint: mean survival time, dose: 10.0 mg/kg/injection, schedule: Q04DX003 (ip), vehicle: saline with Tween-80 95 % of control

COC(=O)c1ccccc1C(=O)c1n[nH]c2ccccc12
inactive: endpoint: mean survival time, dose: 25.0 mg/kg/injection, schedule: Q04DX002 (ip), vehicle: saline with Tween-80 103 % of control | [12] 106 % of control | [5] 106 % of control | [6] 106 % of control

CNC(=O)Nc1ccc(S(N)(=O)=O)cc1
inactive: [1] 97 % of control | [2] 91 % of control | [3] 100 % of control
